Consider 19 compounds from patent US6841533B1, “Conformationally constrained backbone cyclized interleukin-6 antagonists” (Peptor Limited, priority 1995, dated 2005).

Numbered stars: 1 amine (or outer) side, 2 acyl side, 3 side chain; on linkers, the order of the positions; unused ones are H or OH. Bridge positions count the residues as written; N and C are the ends. Square brackets hold non-standard residues; d marks the D form. Peptide text beside a SMILES is read from it. ξ: configuration not given here. Ala(Nα-(CH2)3CO) = C[C@@H](C(=O)[*:2])N(CCCC(=O)[*:3])[*:1]; Ala(Nα-(CH2)3NH) = C[C@@H](C(=O)[*:2])N(CCCN[*:3])[*:1]; Gly(Nα-(CH2)3CO) = O=C(CN(CCCC(=O)[*:3])[*:1])[*:2]; N(2-Aminoethyl)Gly = O=C(CN(CCN[*:3])[*:1])[*:2]; ξY = NC(Cc1ccc(O)cc1)C(=O)O A value given as a limit tells only on which side of the number the result lay.

Test [1] deals with TF1 cells maintained with IL-6. The experiment in a line: Bioassay using TF1 cells maintained with IL-6. The format is cell-based, human. Also noted: TF1: unit not given here. As to conditions: for TF1: MPS crude peptides, Table 6. The source says:
TF1 cells (human erythroleukemia) cells require IL-6 for growth and thus inhibition of IL-6 bioactivity results in cell death, similar to T1165 cells. The origin of all relevant molecules is human.
The problem associated with toxicity (false positive results), could be overcome in the TF1 based assay since these cells can be induced by additional cytokines which are unrelated to IL-6 (not using the gp130 signal transducer). It, is possible to induce the cells to grow with IL-6 and with additional cytokine e.g. GM-CSF. Specific inhibition of IL-6 bioactivity is therefore expected to register only in cells induced by IL-6 and not with GM-CSF. […] Assay procedure is based on the procedure described in Fourcin et al. (ibid). The amount of viable cells at the end of the assay is determined by staining the cells with WST reagent as well as by measuring thymidine corporation (^3H-T).
The libraries were screened for binding of soluble IL-6. The information obtained was used for synthesis of backbone cyclic peptides in MPS format. Analyses for biological activity were performed on the TF1 human cell line.
Since the endpoint of the bioassay used is cell death, there is a need to check the specificity of the killing action, and to examine whether the cell death is due to inhibition of the IL-6 signaling pathway. The peptide analogs were therefore analyzed for their ability to induce non-specific cell death when the same cells were maintained with GM-CSF (instead of IL-6) as growth factor.

For test [2], the system named is B16.F10.9 melanoma cells. As to conditions: for B16F10.9 active at: theoretical crude concentration, MPS peptides.
Description: The F10.9 sub-line of B16 (murine melanoma) expresses gp130 but not IL-6R. Addition of human IL-6 and human IL-6R, or a chimera of IL-6/IL-6R results in differentiation which is associated with growth arrest of the cells. Inhibition of IL-6 results in continued growth. Since the end point of this assay is cell growth rather than cell death, this assay system was used primarily in order to differentiate between suspected toxic effects observed on B9 or T1165 cells, and true inhibition of IL-6 activity.
Evaluation of the results in this assay is possible using two methods. One method uses vital dyes for monitoring cell growth. The second method comprises visual observation of the cell morphology and establishing a cut off point based on the following observations:
Cells which are not treated with IL-6 create a monolayer that covers almost all the surface area. Treatment with IL-6 causes growth arrest and a morphological change: the cells become very narrow and elongated as compared to the more spread out shape of the non-treated cells.
Peptides were added to B16.F10.9 melanoma cells in the presence of 200 ng/ml IL-6 and 125 ng/ml sIL-6R. Incubation for three days.

`C[C@@H](C(N)=O)N1CCCNC(=O)CCCN(C(=O)[C@@H](Cc2ccccc2)NC(=O)[C@H](CCCNC(=N)N)NC(=O)[C@H](CCCCN)NC(=O)[C@H](CCCNC(=N)N)NC(=O)[C@H](N)CCCCN)[C@@H](C)C(=O)N[C@@H](CCCCN)C(=O)N[C@H](CCCNC(=N)N)C(=O)N[C@H](Cc2ccc(O)cc2)C1=O` [(D)Lys-Arg-Lys-Arg-(D)Phe-AlaC3-Lys-(D)Arg-(D)Tyr-AlaN3] (H-[dK]RKR[dF][Ala(Nα-(CH2)3CO)]K[dR][dY][Ala(Nα-(CH2)3NH)]-NH2; lactam 6-10) had a TF1 in test [1] of 17. In addition, the B16F10.9 active at in test [2] was 62 µM.
The corresponding values for `CC(C)C[C@@H]1NC(=O)[C@H](C)N(C(=O)[C@H](Cc2ccccc2)NC(=O)[C@@H](CCCNC(=N)N)NC(=O)[C@H](CCCCN)NC(=O)[C@H](CCCNC(=N)N)NC(=O)[C@@H](N)CCCCN)CCCC(=O)NCCCN([C@@H](C)C(N)=O)C(=O)C(Cc2ccc(O)cc2)NC(=O)[C@H](CCCNC(=N)N)NC1=O` (stereo partly drawn) [Lys-Arg-Lys-(D)Arg-Phe-AlaC3-Leu-Arg-BTyr-AlaN3] (H-KRK[dR]F[Ala(Nα-(CH2)3CO)]LR[ξY][Ala(Nα-(CH2)3NH)]-NH2; lactam 6-10) are 85 and less than 12 µM.
For `CC(C)C[C@@H]1NC(=O)[C@H](C)N(C(=O)[C@@H](Cc2ccccc2)NC(=O)[C@@H](CCCNC(=N)N)NC(=O)[C@H](CCCCN)NC(=O)[C@H](CCCNC(=N)N)NC(=O)[C@H](N)CCCCN)CCCC(=O)NCCCN([C@@H](C)C(N)=O)C(=O)[C@H](Cc2ccc(O)cc2)NC(=O)[C@H](CCCNC(=N)N)NC1=O` [(D)Lys-Arg-Lys-(D)Arg-(D)Phe-AlaC3-Leu-Arg-Tyr-AlaN3] (H-[dK]RK[dR][dF][Ala(Nα-(CH2)3CO)]LRY[Ala(Nα-(CH2)3NH)]-NH2; lactam 6-10), in test [1], the TF1 is on record as 13. This compound yielded a B16F10.9 active at in test [2] of 62 µM.
Take “(D)Lys-Arg-Lys-Arg-Phe-AlaC3-Leu-(D)Arg-(D)Tyr-AlaN3”: the TF1 in test [1] was 19. The B16F10.9 active at result in test [2] is given as “not active”.
Compound `CC(C)C[C@@H](NC(=O)[C@H](CCCNC(=N)N)NC(=O)[C@H](N)CCCCN)C(=O)N[C@H](CCCNC(=N)N)C(=O)N[C@H](Cc1ccccc1)C(=O)N1CCCC(=O)NCCCN([C@@H](C)C(N)=O)C(=O)[C@@H](Cc2ccc(O)cc2)NC(=O)[C@H](CCCNC(=N)N)NC(=O)[C@@H](CC(C)C)NC(=O)[C@@H]1C` [PTR 5041, (D)Lys-Arg-(D) Leu-(D) Arg-(D)Phe-AlaC3-(D)Leu-Arg-(D)Tyr-AlaN3-NH2] (H-[dK]R[dL][dR][dF][Ala(Nα-(CH2)3CO)][dL]R[dY][Ala(Nα-(CH2)3NH)]-NH2; lactam 6-10) yielded a TF1 in test [1] of 92. Further, the “concentration that fully blocks IL-6 activity” value in test [2] (200 ng/ml IL-6 and 125 ng/ml sIL-6R, three days, FIG. 2) was “about 250 nM”. In test [2], this compound showed a B16F10.9 active at of 47 µM.
In test [1], “(D)Tyr-Arg-Lys-Arg-Phe-AlaC3-Lys-(D)Arg-(D)Tyr-AlaN3” displayed a TF1 of 22. Besides, the B16F10.9 active at entry in test [2] is recorded as “not active”.
In the case of `CC(C)C[C@@H]1NC(=O)CN(C(=O)[C@H](Cc2ccccc2)NC(=O)[C@H](CCCNC(=N)N)NC(=O)[C@H](CC(C)C)NC(=O)[C@H](CCCNC(=N)N)NC(=O)[C@@H](N)Cc2ccc(O)cc2)CCCC(=O)NCCN(CC(N)=O)C(=O)[C@H](Cc2ccc(O)cc2)NC(=O)[C@H](CCCNC(=N)N)NC1=O` [PTR 5005, Tyr-Arg-Leu-Arg-Phe-GlyC3-Leu-Arg-Tyr-GlyN2] (H-YRLRF[Gly(Nα-(CH2)3CO)]LRY[N(2-Aminoethyl)Gly]-NH2; lactam 6-10), the “activity on TF1 cells” value in test [1] (in words) was “appears to be active”. Besides, the “IC50 in the B16F10.9 cell assay” value in test [2] is reported as “around 10 μ/ml”.
Consider `CC(C)C[C@@H]1NC(=O)[C@H](C)N(C(=O)[C@H](Cc2ccccc2)NC(=O)[C@@H](CCCNC(=N)N)NC(=O)[C@H](CCCCN)NC(=O)[C@H](CCCNC(=N)N)NC(=O)[C@@H](N)Cc2c[nH]c3ccccc23)CCCC(=O)NCCCN([C@@H](C)C(N)=O)C(=O)C(Cc2ccc(O)cc2)NC(=O)[C@H](CCCNC(=N)N)NC1=O` (stereo partly drawn) [Trp-Arg-Lys-(D)Arg-Phe-AlaC3-Leu-Arg-BTyr-AlaN3] (H-WRK[dR]F[Ala(Nα-(CH2)3CO)]LR[ξY][Ala(Nα-(CH2)3NH)]-NH2; lactam 6-10; C-terminus assumed), for which the TF1 in test [1] is 32. The compound also gave a B16F10.9 active at in test [2] of less than 12 µM.
In turn, `CC(C)C[C@@H]1NC(=O)[C@H](C)N(C(=O)[C@@H](Cc2ccccc2)NC(=O)[C@@H](CCCNC(=N)N)NC(=O)[C@H](CCCCN)NC(=O)[C@H](CCCNC(=N)N)NC(=O)[C@@H](N)Cc2c[nH]c3ccccc23)CCCC(=O)NCCCN([C@@H](C)C(N)=O)C(=O)C(Cc2ccc(O)cc2)NC(=O)[C@H](CCCNC(=N)N)NC1=O` (stereo partly drawn) [Trp-Arg-Lys-(D)Arg-(D)Phe-AlaC3-Leu-Arg-BTyr-AlaN3] (H-WRK[dR][dF][Ala(Nα-(CH2)3CO)]LR[ξY][Ala(Nα-(CH2)3NH)]-NH2; lactam 6-10) returned a TF1 in test [1] of 41. For the same compound, in test [2], the B16F10.9 active at is less than 12 µM.
In the case of “(D)Lys-Arg-Lys-Arg-Phe-AlaC3-Leu-Arg-(D)Tyr-AlaN3”, in test [1], the TF1 was found to be 25. Besides, the B16F10.9 active at result in test [2] is “not active”.
For the compound `C[C@@H](C(N)=O)N1CCCNC(=O)CCCN(C(=O)[C@@H](Cc2ccccc2)NC(=O)[C@@H](CCCNC(=N)N)NC(=O)[C@H](CCCCN)NC(=O)[C@H](CCCNC(=N)N)NC(=O)[C@H](N)CCCCN)[C@@H](C)C(=O)N[C@@H](CCCCN)C(=O)N[C@@H](CCCNC(=N)N)C(=O)N[C@@H](Cc2ccc(O)cc2)C1=O` [(D)Lys-Arg-Lys-(D)Arg-(D)Phe-AlaC3-Lys-Arg-Tyr-AlaN3] (H-[dK]RK[dR][dF][Ala(Nα-(CH2)3CO)]KRY[Ala(Nα-(CH2)3NH)]-NH2; lactam 6-10), the TF1 in test [1] is reported as 17. The B16F10.9 active at in test [2] came to 62 µM.
In the case of `CC(C)C[C@H]1NC(=O)[C@H](C)N(C(=O)[C@H](Cc2ccccc2)NC(=O)[C@@H](CCCNC(=N)N)NC(=O)[C@H](CCCCN)NC(=O)[C@H](CCCNC(=N)N)NC(=O)[C@H](N)CCCCN)CCCC(=O)NCCCN([C@@H](C)C(N)=O)C(=O)[C@H](Cc2ccc(O)cc2)NC(=O)[C@H](CCCNC(=N)N)NC1=O` [(D)Lys-Arg-Lys-(D)Arg-Phe-AlaC3-(D)Leu-Arg-Tyr-AlaN3] (H-[dK]RK[dR]F[Ala(Nα-(CH2)3CO)][dL]RY[Ala(Nα-(CH2)3NH)]-NH2; lactam 6-10), the TF1 in test [1] is recorded as 3. This compound also gave a B16F10.9 active at in test [2] of 62 µM.
“Lys-Arg-Leu-(D)Arg-(D)Phe-AlaC3-Lys-Arg-BTyr-AlaN3” returned a TF1 in test [1] of 22. Besides, the B16F10.9 active at result in test [2] is listed as “not active”.
The like results for “(D)Lys-Arg-Lys-Arg-Phe-AlaC3-Lys-Arg-(D)Tyr-AlaN3” were, in that order, 21 and “not active”.
For `CC(C)C[C@@H]1NC(=O)[C@H](C)N(C(=O)[C@@H](Cc2ccccc2)NC(=O)[C@H](CCCNC(=N)N)NC(=O)[C@H](CCCCN)NC(=O)[C@H](CCCNC(=N)N)NC(=O)[C@H](N)CCCCN)CCCC(=O)NCCCN([C@@H](C)C(N)=O)C(=O)[C@@H](Cc2ccc(O)cc2)NC(=O)[C@H](CCCNC(=N)N)NC1=O` [(D)Lys-Arg-Lys-Arg-(D)Phe-AlaC3-Leu-Arg-(D)Tyr-AlaN3] (H-[dK]RKR[dF][Ala(Nα-(CH2)3CO)]LR[dY][Ala(Nα-(CH2)3NH)]-NH2; lactam 6-10), in test [1], the TF1 stood at 23. In addition, in test [2], the B16F10.9 active at is 62 µM.
`CC(C)C[C@@H]1NC(=O)[C@H](C)N(C(=O)[C@@H](Cc2ccccc2)NC(=O)[C@@H](CCCNC(=N)N)NC(=O)[C@H](CCCCN)NC(=O)[C@H](CCCNC(=N)N)NC(=O)[C@@H](N)Cc2ccc(O)cc2)CCCC(=O)NCCCN([C@@H](C)C(N)=O)C(=O)C(Cc2ccc(O)cc2)NC(=O)[C@@H](CCCNC(=N)N)NC1=O` (stereo partly drawn) [Tyr-Arg-Lys-(D)Arg-(D)Phe-AlaC3-Leu-(D)Arg-BTyr-AlaN3] (H-YRK[dR][dF][Ala(Nα-(CH2)3CO)]L[dR][ξY][Ala(Nα-(CH2)3NH)]-NH2; lactam 6-10) displayed a TF1 in test [1] of 19. The same compound came in with a B16F10.9 active at in test [2] of 47 µM.
Turning to `C[C@@H](C(N)=O)N1CCCNC(=O)CCCN(C(=O)[C@H](Cc2ccccc2)NC(=O)[C@H](CCCNC(=N)N)NC(=O)[C@H](CCCCN)NC(=O)[C@H](CCCNC(=N)N)NC(=O)[C@@H](N)CCCCN)[C@@H](C)C(=O)N[C@@H](CCCCN)C(=O)N[C@H](CCCNC(=N)N)C(=O)NC(Cc2ccc(O)cc2)C1=O` (stereo partly drawn) [Lys-Arg-Lys-Arg-Phe-AlaC3-Lys-(D)Arg-BTyr-AlaN3] (H-KRKRF[Ala(Nα-(CH2)3CO)]K[dR][ξY][Ala(Nα-(CH2)3NH)]-NH2; lactam 6-10), in test [1], the TF1 is 21. The B16F10.9 active at in test [2] stood at 62 µM.
For “(D)Lys-Arg-Lys-Arg-Phe-AlaC3-(D)Leu-(D)Arg-Tyr-AlaN3”, the TF1 in test [1] worked out at 27. The B16F10.9 active at entry in test [2] is on record as “not active”.
For the compound `C[C@@H](C(N)=O)N1CCCNC(=O)CCCN(C(=O)[C@@H](Cc2ccccc2)NC(=O)[C@H](CCCNC(=N)N)NC(=O)[C@H](CCCCN)NC(=O)[C@H](CCCNC(=N)N)NC(=O)[C@H](N)CCCCN)[C@@H](C)C(=O)N[C@@H](CCCCN)C(=O)N[C@@H](CCCNC(=N)N)C(=O)N[C@@H](Cc2ccc(O)cc2)C1=O` [(D)Lys-Arg-Lys-Arg-(D)Phe-AlaC3-Lys-Arg-Tyr-AlaN3] (H-[dK]RKR[dF][Ala(Nα-(CH2)3CO)]KRY[Ala(Nα-(CH2)3NH)]-NH2; lactam 6-10), the TF1 in test [1] is given as 55. The compound also showed a B16F10.9 active at in test [2] of 62 µM.
